According to BindingDB's records for doi:10.1111/cbdd.12826 (Universidade De Lisboa, 2016):
Where a name gives a salt, the structure may show the parent alone.

Target: DNA-(apurinic or apyrimidinic site) endonuclease (Homo sapiens, UniProt P27695)
Assay: Fluorescence-Based APE1 Endonuclease Activity Assay
Conditions: pH 7.5
Method: In this assay, the complementary single-stranded oligonucleotides at […] were mixed at a 1:1 ratio and annealed in assay buffer (50 mm Tris pH 7.5, 25 mm NaCl, 2 mm MgCl2, 1 mm DTT, 0.01% Tween-20) at 95 °C for 5 min to generatethe double-stranded substrate of APE1.[A. Simeonov, A. Kulkarni, D. Dorjsuren, A. Jadhav, M. Shen, D. R. McNeill, C. P. Austin, D. M. Wilson 3rd, PLoS ONE 2009, 4, p. e5740.] After the annealing, the reaction mixture was allowed to cool to room temperature. The assay was carried out in 96-well black plates with flat bottom (Costar, Corning Inc., NY, USA) at a finalreaction volume of 100 μL. The reaction mixtures containing 2.5 U of human recombinant APE1 (6 μL) (New England Biolabs, Ipswich, MA, USA) were incubated in the assay buffer abovementioned, in the absence or presence of the putative APE1 inhibitors (5 μL), at room temperature for 15 min. The reaction was initiated by the addition of double-stranded substrate (6 μL) to obtain the final concentration of 250 nm. DMSO was maintained at a concentration of 0.5% (v/v) in all assays (negative control). Fluorescence readings were acquired at 1-min intervals over an incubation period of 30 min at 37 °C using a SpectraMax Gemini EM microplate plate reader (Molecular Devices, Berkshire, UK) in the kinetic mode at excitation wavelength 550 nm, emission wavelength 584 nm, and cutoff at 570 nm.

Chain of DNA-(apurinic or apyrimidinic site) endonuclease (P27695 whole entry): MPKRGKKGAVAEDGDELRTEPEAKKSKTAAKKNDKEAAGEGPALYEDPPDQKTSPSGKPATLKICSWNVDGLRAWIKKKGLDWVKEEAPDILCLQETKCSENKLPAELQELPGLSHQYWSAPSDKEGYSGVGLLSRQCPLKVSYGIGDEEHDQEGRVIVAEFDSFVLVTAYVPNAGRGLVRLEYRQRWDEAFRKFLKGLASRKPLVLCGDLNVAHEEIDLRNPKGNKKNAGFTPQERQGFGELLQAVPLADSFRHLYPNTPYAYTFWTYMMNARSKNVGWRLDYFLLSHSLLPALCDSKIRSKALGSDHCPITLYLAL

## Nc1ccc(/N=N/c2c(N)ccc3cc(S(=O)(=O)O)cc(O)c23)c(S(=O)(=O)O)c1 [6-amino-5-[(4-amino-2-sulfophenyl)azo]-4-hydroxy-2-naphtalenesulfonic acid disodium salt (Compound 41)]
  IC50: 8.85 µM

## CC(=O)Nc1ccc(/C=C/c2ccc(N=C=S)c(S(=O)(=O)O)c2)c(S(=O)(=O)O)c1 [(5-(acetylamino)-2-[2-(4-isothiocyanato-3-sulfophenyl)ethenyl]benzenesulfonic acid disodium salt (Compound 22)]
  IC50: 0.25 µM

## Nc1ccc2cc(S(=O)(=O)O)cc(O)c2c1/N=N/c1ccc([N+](=O)[O-])cc1S(=O)(=O)O [6-amino-4-hydroxy-5-[(4-nitro-2-sulfophenyl)azo]-2-naphtalenesulfonic acid disodium salt (Compound 37)]
  IC50: 7.76 µM
